# Where a SMILES comes first, the peptide text is derived from it. [ ]: non-standard residue; d: D form. AEEA = NCCOCCOCC(=O)O
# Tests used:
# [1] = system: primary murine splenic dendritic cells; test: LPS-stimulated murine splenocytes, DC activation (flow cytometry); type: cell-based
# Experimental: FIG. 5—Peptide administration reduces the activation of pro-inflammatory DCs and macrophages. (A) C57BL/6 murine splenocytes were stimulated with LPS±peptide RP23 (SEQ ID NO:12) and expression of activation markers on DCs was assessed by flow cytometry. (B) Bone marrow derived murine macrophages were incubated with peptide RP23 (30 mins) and stimulated with LPS (overnight). Positive controls were stimulated with LPS only. Negative controls were unstimulated. Inflammatory cytokine production was assessed by ELISA. (C) CD14+ cells were isolated from human blood and differentiated into macrophages by culturing with human serum. Cells were incubated with peptide RP23 (30 mins), then stimulated overnight with LPS (left panel) or imiquimod (right panel). Inflammatory cytokine (IL-6 or IL-12/23) production was assessed by ELISA. Representative of 6 donors. Data are presented as mean±S.E.M. Statistical significance was determined by ANOVA with Dunnett's multiple comparison test, *p<0.05, **p<0.01, ***p<0.001.
# Using an in vitro culture system, it was determined whether RP23 could suppress the activity of specific pro-inflammatory immune cells. […] The culture of murine bone marrow derived macrophages with RP23 led to reduced IL-6, MCP-1 and TNF release after LPS-stimulation (FIG. 5b). […]
# C57BL/6 mice = test: contact hypersensitivity model (DNFB-induced contact dermatitis); type: in vivo
# Experimental: FIG. 2—Peptide administration reduces inflammation in a mouse model of contact dermatitis and reduces myeloid inflammatory infiltrate. (A) Experimental outline of DNFB-induced contact dermatitis. (B) Ear thickness of peptide RP23 (SEQ ID NO:12) treated mice, repeated 3 times. […] Data are presented as mean±S.E.M. Statistical significance was determined (B) by multiple t tests (C) by ANOVA with Dunnett's multiple comparison test, *p<0.05, **p<0.01, ***p<0.001.
# FIG. 3—The peptide effect is dependent on the peptide sequence and dose. (A) PBS, scrambled peptide or peptide MUC1SP ([…]; SEQ ID NO: 3) was injected subcutaneously seven days prior to sensitising C57BL/6 mice (n=5) with DNFB on the abdomen. […] (B) A comparison of the immunosuppressive effect of peptide RP23 (SEQ ID NO:12) and MUC1SP (SEQ ID NO: 3). (C) SEQ ID NO:12 suppressed immunity in a dose dependent manner. (D) Addition of GM-CSF to the SEQ ID NO:12 injection abrogated the immune suppression. Data are the means±S.E.M.
# FIG. 8—Effects of peptide variants on the inflammatory response. Mice received one injection of PBS or one of the following peptides (10 nmol) subcutaneously at the abdomen (A) peptide RP23 (SEQ ID NO: 12), peptide AF594-RP23 (SEQ ID NO: 21), peptide K4-G3-MUC1SP (SEQ ID NO:22) or MUC1SP C fragment (SEQ ID NO: 2). Five days later, mice were challenged with DNFB at a distal site, on the ears. The thickness of the ears was measured over 72 hours.
# FIG. 9—Effects of further peptide variants, without N-terminal methionine, on the inflammatory response in a model of contact dermatitis. Mice received one injection of PBS, RP23 (SEQ ID NO:12) (10 nmol) or one of the peptide variants indicated in the table including SEQ ID NO: 32 and 35 as described herein (equivalent molar amount of RP23), subcutaneously at the abdomen. Photoleucine replaces leucine where indicated, these molecules used for photo-crosslinking studies. Seven days later, abdominal skin was sensitised with a contact irritant (DNFB) and five days later, mice were challenged with DNFB at a distal site, on the ears. (A) Specific increase in ear thickness over 72 hours, data are the means+/−SEM (n=6). Statistical significance was determined by ANOVA with Dunnett's multiple comparison test to PBS only control, **p<0.01. (B) Specific increase in ear thickness at 24 hours post-challenge. Data are the means+/−SEM (n=6). Statistical significance was determined by t-test to relevant control, as indicated, *p<0.05, **p<0.01, ns=not significant.
# The abdomens of 8-week old female C57BL/6 mice (Australian BioResources) were coarse shaved. A minimum of 24 hours later, RP23 (SEQ ID NO:12) was delivered via sub-cutaneous injection at the abdomen in 50 μl phosphate buffered saline. Seven days later, mice were topically sensitised to 1-fluoro-2,4-dinitrobenzene (DNFB, 0.5 vol %) in olive oil/acetone (1:4, v/v, 30 μl) via application to the shaved abdomen. Five days after sensitisation, mice were challenged on the ears with topical DNFB (0.25 vol %) in olive oil/acetone (1:4, v/v, 15 μl per ear). Ear thickness was measured daily using manual callipers from immediately before challenge, up to 96 hours post challenge. Positive controls for ear swelling consisted of mice that were injected with PBS instead of RP23. Negative or irritant controls consisted of a group of mice that received the DNFB challenge, but not the sensitisation. The average of the change in ear thickness from this control group was subtracted from the change in ear thickness of other samples to account for non-specific irritation due to the application of DNFB, olive oil and acetone.
# The inventors then conducted additional in vivo studies, using a model of contact hypersensitivity, to determine the portion of RP23 responsible for its immunomodulatory activity. Mice received one injection of peptide (10 nmol) subcutaneously at the abdomen, seven days prior to sensitisation of the skin with a contact irritant (DNFB). […]
# mice = test: tolerability of injection in mice; type: in vivo; details: even 10 nmol daily for 6 days sub-cutaneous (data not shown)
# [2] = system: murine macrophages/monocytes; type: cell-based
# Experimental: (§1) FIG. 6—Peptide administration is not cytostatic or cytotoxic to murine and human macrophages/monocytes. Cytostatic/cytotoxic effect of peptide RP23 (SEQ ID NO:12) was assessed after overnight incubation (A) by WST-1 assay in RAW and THP-1 cell lines (data are the means of 2 replicates) (B) by LDH assay in primary murine BMDMs or human MDMs (data are mean±S.E.M).
# [3] = system: human macrophages/monocytes; type: cell-based
# Experimental: as §1
compound,measurement,setting,value
CSCC[C@H](NC(=O)COCCOCCNC(=O)[C@H](CCCCN)NC(=O)[C@H](CCCCN)NC(=O)[C@H](CCCCN)NC(=O)[C@@H](N)CCCCN)C(=O)N[C@H](C(=O)N1CCC[C@H]1C(=O)NCC(=O)N[C@H](C(=O)N[C@@H](CCC(N)=O)C(=O)N[C@@H](CO)C(=O)N1CCC[C@H]1C(=O)N[C@@H](Cc1ccccc1)C(=O)N[C@@H](Cc1ccccc1)C(=O)N[C@@H](CC(C)C)C(=O)N[C@@H](CC(C)C)C(=O)N[C@@H](CC(C)C)C(=O)N[C@@H](CC(C)C)C(=O)N[C@@H](CC(C)C)C(=O)N[C@H](C(=O)N[C@H](C(=O)N[C@@H](CC(C)C)C(=O)N[C@H](C(=O)N[C@H](C(=O)N[C@H](C(=O)O)C(C)C)C(C)C)[C@@H](C)O)C(C)C)[C@@H](C)O)[C@@H](C)O)[C@@H](C)O [RP23] (H-KKKK[AEEA]MTPGTQSPFFLLLLLTVLTVV-OH),expression of surface activation markers,[1]; LPS stimulation,reduced
same,secretion of inflammatory chemokines,[1]; data not shown,reduced the secretion of inflammatory chemokines
same,inflammatory response (ear thickness over 72 hours),"C57BL/6 mice; 10 nmol subcutaneously at the abdomen, compared to PBS (FIG. 8)",led to a reduced inflammatory response
same,immune suppression compared to SEQ ID NO: 3 (MUC1SP),C57BL/6 mice; FIG. 3b,without significantly altering immune suppression
same,suppression of ear swelling with GM-CSF included,C57BL/6 mice; GM-CSF added to the injection (FIG. 3d),abrogated much of the suppression
same,reduction in ear swelling compared to controls,"C57BL/6 mice; dose-response, 2, 5 or 10 nmol",up to 100%
same,elicitation of inflammation (ear thickness),C57BL/6 mice; single nanomolar injection prior to sensitisation,significantly suppress elicitation of inflammation
same,inflammatory myeloid cell skin infiltrate,"C57BL/6 mice; single nanomolar injection prior to sensitisation, flow cytometry 72 hours post challenge",reduction
same,adverse reactions,mice,No adverse reactions of any kind
same,cytostatic or cytotoxic effects,[2],without causing any cytostatic or cytotoxic effects
same,cytostatic or cytotoxic effects,[3],without causing any cytostatic or cytotoxic effects
